Experimental data: patent publication US20100204149A1, “USE OF OCTREOTIDE AS A THERAPEUTIC AGENT” (priority 2007, published 2010)

Tests used:
[1] = system: HIV-1IIIB; test: HIV-1 antiviral assay (CPE reduction) in CEM-SS cells; settings: peptide 10 micrograms per ml; 6 days post-infection; MTS
[2] = system: CEM-SS cells; test: Cytotoxicity (MTS cell viability) in HIV-1 assay; settings: peptide 10 micrograms per ml, MTS
[3] = system: MRC-5 cells (human embryonal lung fibroblasts); test: Cytotoxicity testing in MRC-5 cells (CellTiter 96); assay type: cell-based; settings: 6 days
Procedure: For cytotoxicity testing, MRC-5 cells were seeded at 2,500 cells/well in 96 well plates using growth medium. […] The following day, peptide was added and tested in duplicates. After a 6 days incubation period, cell viability was measured using CellTiter 96 Solution (Promega). Plates were incubated for additional 4 hours at 37° C.

[4] = system: HCMV strain AD169; test: HCMV plaque reduction assay in MRC-5 cells; assay type: cell-based; settings: peptide 10 micrograms per ml, 7-10 days
Source text: Ganciclovir was used as positive control.

Compound | % CPE reduction in HIV-1 infected CEM-SS cells [1] | % Cell viability [2] | % Cell viability [3] | % plaque reduction [4]
Cc1cn([C@H]2C[C@H](N=[N+]=[N-])[C@@H](CO)O2)c(=O)[nH]c1=O [AZT, reference compound] | 99% | 97% | – | –
Nc1nc(O)c2ncn(COC(CO)CO)c2n1 [Ganciclovir, reference compound] | – | – | 100% | 100%
CC(C)(C)NC(=O)[C@@H]1CN(Cc2cccnc2)CCN1C[C@@H](O)C[C@@H](Cc1ccccc1)C(=O)N[C@H]1c2ccccc2C[C@H]1O [Indinavir] | 100% | – | – | –
